Results as given in publication PMC6039436, “Radiobrominated benzimidazole-quinoline derivatives as Platelet-derived growth factor receptor beta (PDGFRβ) imaging probes” (Scientific Reports, 2018).
Marks after values point to notes of the source that are not given here. Values belong to the compound of their own block, whether it stands above or below them.

Columns and labels:
[1] = tested on: PDGFRβ overexpressed TR-PCT1 cells; assay: Cell viability assay (WST-8 / Cell Counting Kit-8); format: cell-based, rat; details: 1–1000 nM, 72 h, 20 ng/mL PDGF-BB, compared with 1
Experimental: The binding affinity of 2 and 3 to the ATP-binding site in PDGFRβ was evaluated using PDGFRβ overexpressed TR-PCT1 cells. Cells were treated with 1–1000 nM of synthesized ligands, 1, 2, or 3.
Figure 4 Cell viability after exposure 1, 2, and 3 by WST-8 assay. Data were presented as mean ± SD for three samples. Significance was determined using a one-way ANOVA followed by Tukey’s post hoc test (^*p < 0.01, ^**p < 0.001).
The cell viability assay of brominated compounds, 2 and 3, was evaluated as described previously[24],[27]. Namely, TR-PCT1 cells were seeded on 96-well plates (5 × 10^3 cells/well) and cultured at 33 °C in DMEM medium with 20 ng/mL PDGF-BB and 2% FBS in a 5% CO2 incubator. Cells were treated with each compound for 72 h and cell viability was determined by the Cell Counting Kit-8.

PDGFRβ (BxPC3-luc cells) = molecular target: T1, PDGFRβ (BxPC3-luc cells) (Homo sapiens, UniProt P09619); assay: Competitive binding assay of [^125I]4 with BxPC3-luc cells; details: displacement of [^125I]4, BxPC3-luc cells, 37 °C, 4 h
T1 construct: host or cells: BxPC3-luc cells
Experimental: We investigated the competitive binding of [^125I]4 to BxPC3-luc cells with PDGFRβ ligand, 1, 2, and 3.
BxPC3-luc cells in medium containing 10% FBS and antibiotics were seeded on 24-well plates (50,000 cells/wells) and incubated for 24 h in a 5% CO2 incubator at 37 °C. Nine concentrations of displacing nonradiolabeled ligands (1, 2 and 3) (ranging from 1 pM to 1 mM) and [^125I]4 in medium without FBS were incubated at 37 °C for 4 h. After washing the cells twice using 250 µL of ice-cold PBS, the unbound radioligand was removed. The cells were dissolved using 250 µL of 1 M NaOH and wells were washed with 250 µL of 1 M NaOH. The bound radioactivity was determined using a gamma counter.
All data were statisticaly analyzed using GraphPad 5.0 software (La Jolla, CA, USA) and expressed as mean ± standard deviation (SD). Significance for in vitro blocking experiments was determined by a one-way analysis of variance (ANOVA) followed by Dunnett’s post hoc test compared to the control group. Significance in cell viability assays was determined by ANOVA followed by Tukey’s post hoc test. IC50 values for the binding assay were calculated by nonlinear regression. Significant differences in biodistribution experiments between [^77Br]2 and [^77Br]3 groups were determined using unpaired Student’s t-test. Significance for in vivo blocking studies between control and blocking groups were determined by unpaired Student’s t-test. Results were considered statistically significant at p < 0.05.

[2] = tested on: BxPC3-luc cells (PDGFRβ-positive); assay: Cellular uptake study (double tracer method); format: cell-based; details: BxPC3-luc (PDGFRβ-positive) vs MCF7 (PDGFRβ-negative), 0.5–4 h
Experimental: Figure 5 Cellular uptake study. Time-dependent accumulation of (a) [^77Br]2 and [^125I]4 (b) [^77Br]3 and [^125I]5 in BxPC3-luc and MCF7 cells. Data were presented as mean ± SD for three samples.
Radiotracer uptake experiments in tumor cells were performed using BxPC3-luc and MCF7 cell lines. To compare the uptake between radiobrominated compounds, [^77Br]2 and [^77Br]3, and the corresponding radioiodinated compounds, [^125I]4 and [^125I]5, the cellular uptake experiments were performed by a double tracer method as described previously with a slight modification[30],[31],[35]. Briefly, the cells were seeded in RPMI 1640 medium containing 10% FBS and antibiotics on six-well plates (2 × 10^5 cells/well) for 24 h in a 5% CO2 incubator at 37 °C. After removal of medium, cells were incubated in medium without FBS containing [^77Br]2 (3.7 kBq/well) and [^125I]4 (3.7 kBq/well) or [^77Br]3 (3.7 kBq/well) and [^125I]5 (3.7 kBq/well) and tween-80 (0.1%) for 0.5, 1, 2 and 4 h. Radioiodinated compounds were prepared as described previously][24]. Cells were washed with ice-cold 1 mL of PBS and dissolved using 0.5 mL of 1 M NaOH and wells were washed with 1 M NaOH aqueous solution (0.5 mL). The radioactivity of pooled basic fractions was counted by a gamma counter. A range between 16 and 71 keV was used for measuring ^125I and between 95 and 700 for ^77Br. When radioactivity of ^77Br was counted, the crossover of ^125I activity into the ^77Br channel was negligible. More than one month after the experiment, the radioactivity of ^125I was determined because at that time ^77Br has been decayed and its radioactivity was negligible. The protein in the cell was quantified by a BCA Protein Assay Kit. All data were expressed as %dose/µg protein.

BxPC3-luc tumor = assay: Biodistribution in BxPC3-luc tumor-bearing mice; format: in vivo, BALB/c nu/nu mice
Experimental: We investigated the biodistribution of the radiotracers in BxPC3-luc tumor-bearing mice by co-injecting [^77Br]2 with [^125I]4 (Table 3), and [^77Br]3 with [^125I]5 (Table 4).
Animal experiments were conducted in strict accordance with the Guidelines for the Care and Use of Laboratory Animals of Kanazawa University. The animal experimental protocols used were approved by the Committee on Animal Experimentation of Kanazawa University (Permit Number: AP-163766). The animals were housed with free access to food and water at approximately 23 °C with a 12 h light/dark schedule. ddY mice (six-week-old, male, 27–30 g) and BALB/c nu/nu mice (four-week-old, female, 12–17 g) were purchased from Japan SLC Inc. (Hamamatsu, Japan). For preparing the tumor-bearing mice, BxPC3-luc cells (5 × 10^6 cells) were subcutaneously injected into the left shoulder of BALB/c nu/nu mice. The tumor reached palpable size after two weeks of the inoculation.
(§1) Mice were intravenously injected via the tail with 100 µL of saline solution of [^77Br]2 and [^125I]4 or [^77Br]3 and [^125I]5 (74 kBq, respectively), containing 10% ethanol and 1% tween-80. The ddY mice were sacrificed at 10 min, 1, 4, and 24 h postinjection. Meanwhile, tumor-bearing mice were sacrificed at 1 h postinjection.
(§2) Tissues in mice were resected and weighed. The radioactivity of the tissues was counted by a gamma counter and counts were corrected for background radiation. The data were expressed as percent injection dose per gram tissue (%ID/g).

[3] = Biodistribution in ddY mice; format: in vivo; details: i.v. co-injection
Experimental: In this study, to minimize both the number of mice consumed in the experiment and the potential for experimental errors, we co-injected radiobrominated and radioiodinated compounds into mice[30],[31]. High radioactivity in the liver, small intestine, and large intestine was observed.
as §1, §2

[4] = set-up: method as in PMID 28838832; details: radioiodinated compounds; cited from earlier work
RXF393 xenograft = tested on: RXF393 xenograft; set-up: method as in PMID 23522977; details: RXF393 xenograft mice; cited from earlier work

T1 sequence (P09619 33-1106): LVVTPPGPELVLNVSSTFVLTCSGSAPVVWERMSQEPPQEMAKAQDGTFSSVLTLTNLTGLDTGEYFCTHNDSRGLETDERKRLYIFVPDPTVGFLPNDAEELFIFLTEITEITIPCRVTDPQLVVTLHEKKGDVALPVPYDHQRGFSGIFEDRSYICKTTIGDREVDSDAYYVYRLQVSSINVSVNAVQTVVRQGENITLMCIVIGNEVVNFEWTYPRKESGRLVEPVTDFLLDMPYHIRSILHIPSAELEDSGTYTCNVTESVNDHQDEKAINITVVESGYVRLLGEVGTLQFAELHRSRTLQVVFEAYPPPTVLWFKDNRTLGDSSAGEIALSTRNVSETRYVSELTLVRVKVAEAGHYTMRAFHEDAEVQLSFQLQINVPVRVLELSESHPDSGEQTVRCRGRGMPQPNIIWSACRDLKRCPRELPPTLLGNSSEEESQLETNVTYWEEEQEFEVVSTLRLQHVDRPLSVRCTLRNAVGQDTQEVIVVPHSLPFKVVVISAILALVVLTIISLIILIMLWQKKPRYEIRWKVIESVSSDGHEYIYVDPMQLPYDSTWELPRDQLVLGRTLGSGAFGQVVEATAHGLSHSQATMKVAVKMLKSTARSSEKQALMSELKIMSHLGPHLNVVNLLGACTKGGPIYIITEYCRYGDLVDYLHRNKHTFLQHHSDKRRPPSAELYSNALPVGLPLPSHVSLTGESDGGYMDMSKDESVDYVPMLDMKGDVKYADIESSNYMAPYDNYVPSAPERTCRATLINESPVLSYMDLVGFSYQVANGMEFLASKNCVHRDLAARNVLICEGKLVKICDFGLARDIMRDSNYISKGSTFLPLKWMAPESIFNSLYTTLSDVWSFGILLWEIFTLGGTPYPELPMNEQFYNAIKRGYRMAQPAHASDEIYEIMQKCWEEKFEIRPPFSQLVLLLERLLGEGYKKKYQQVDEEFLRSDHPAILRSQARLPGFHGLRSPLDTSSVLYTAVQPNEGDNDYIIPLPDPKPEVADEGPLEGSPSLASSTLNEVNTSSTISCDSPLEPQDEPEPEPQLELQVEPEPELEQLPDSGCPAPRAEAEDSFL

- IC50 (PDGFRβ (BxPC3-luc cells)): 56 ± 13 nM
SMILES: COCCOc1ccc2c(c1)ncn2-c1ccc2c(Br)ccc(N3CCC(N)CC3)c2n1 [Compound 2, 1-{5-bromo-2-[5-(2-methoxyethoxy)-1H-benzo[d]imidazol-1-yl]quinolin-8-yl}piperidin-4-amine]
- Cell viability of TR-PCT1 cells [1]: more effective in decreasing the viability of TR-PCT1 cells than 1

- Tumor-to-blood ratio of radioactivity (BxPC3-luc tumor; 1 h postinjection): 1.9
- Radioactivity in Stomach (BxPC3-luc tumor; i.v. co-injection, 1 h): 0.97 (0.19) %injected dose /organ
- Radioactivity in Blood ([3]; 10 min): 1.15 (0.08)^* %injected dose/gram tissue
- Radioactivity in Bone ([3]; 10 min): 1.53 (0.14) %injected dose/gram tissue
- Radioactivity in Heart ([3]; 10 min): 4.27 (0.27) %injected dose/gram tissue
- Radioactivity in Kidney ([3]; 10 min): 14.44 (1.31) %injected dose/gram tissue
- Radioactivity in Large intestine ([3]; 10 min): 0.80 (0.07)^* %injected dose/gram tissue
- Radioactivity in Liver ([3]; 10 min): 11.59 (0.69) %injected dose/gram tissue
- Radioactivity in Lung ([3]; 10 min): 9.64 (0.66)^* %injected dose/gram tissue
- Radioactivity in Muscle ([3]; 10 min): 1.92 (0.18) %injected dose/gram tissue
- Radioactivity in Pancreas ([3]; 10 min): 3.52 (0.33)^* %injected dose/gram tissue
- Radioactivity in Small intestine ([3]; 10 min): 9.32 (2.30) %injected dose/gram tissue
- Radioactivity in Spleen ([3]; 10 min): 5.08 (0.56) %injected dose/gram tissue
- Radioactivity in Stomach ([3]; 10 min): 1.66 (0.11) %injected dose /organ
- Radioactivity in Blood ([3]; 1 h): 0.32 (0.09) %injected dose/gram tissue
- Radioactivity in Bone ([3]; 1 h): 1.22 (0.29) %injected dose/gram tissue
- Radioactivity in Brain ([3]; 1 h): 0.15 (0.04) %injected dose/gram tissue
- Radioactivity in Heart ([3]; 1 h): 1.23 (0.49) %injected dose/gram tissue
- Radioactivity in Kidney ([3]; 1 h): 8.18 (2.71) %injected dose/gram tissue
- Radioactivity in Large intestine ([3]; 1 h): 2.16 (0.54) %injected dose/gram tissue
- Radioactivity in Liver ([3]; 1 h): 3.72 (1.18) %injected dose/gram tissue
- Radioactivity in Lung ([3]; 1 h): 3.88 (0.72) %injected dose/gram tissue
- Radioactivity in Muscle ([3]; 1 h): 0.78 (0.11) %injected dose/gram tissue
- Radioactivity in Pancreas ([3]; 1 h): 2.49 (0.63) %injected dose/gram tissue
- Radioactivity in Small intestine ([3]; 1 h): 25.44 (6.86) %injected dose/gram tissue
- Radioactivity in Spleen ([3]; 1 h): 1.67 (0.41) %injected dose/gram tissue
- Radioactivity in Stomach ([3]; 1 h): 1.76 (0.58) %injected dose /organ
- Radioactivity in Blood ([3]; 4 h): 0.19 (0.05) %injected dose/gram tissue
- Radioactivity in Bone ([3]; 4 h): 0.32 (0.08) %injected dose/gram tissue
- Radioactivity in Heart ([3]; 4 h): 0.31 (0.05)^* %injected dose/gram tissue
- Radioactivity in Kidney ([3]; 4 h): 4.28 (0.68) %injected dose/gram tissue
- Radioactivity in Large intestine ([3]; 4 h): 51.43 (8.57) %injected dose/gram tissue
- Radioactivity in Liver ([3]; 4 h): 3.45 (1.02) %injected dose/gram tissue
- Radioactivity in Lung ([3]; 4 h): 2.18 (0.55) %injected dose/gram tissue
- Radioactivity in Pancreas ([3]; 4 h): 1.27 (0.11)^* %injected dose/gram tissue
- Radioactivity in Small intestine ([3]; 4 h): 4.98 (0.89) %injected dose/gram tissue
- Radioactivity in Spleen ([3]; 4 h): 0.43 (0.11) %injected dose/gram tissue
- Radioactivity in Stomach ([3]; 4 h): 0.85 (0.21) %injected dose /organ
- Radioactivity in Kidney ([3]; 24 h): 0.13 (0.03) %injected dose/gram tissue
- Radioactivity in Large intestine ([3]; 24 h): 0.14 (0.02) %injected dose/gram tissue
- Radioactivity in Liver ([3]; 24 h): 0.29 (0.08) %injected dose/gram tissue
- Radioactivity in Lung ([3]; 24 h): 0.15 (0.08)^* %injected dose/gram tissue
- Radioactivity in Pancreas ([3]; 24 h): 0.07 (0.02) %injected dose/gram tissue
- Radioactivity in Spleen ([3]; 24 h): 0.11 (0.09)^* %injected dose/gram tissue
- Radioactivity in Stomach ([3]; 24 h): 0.05 (0.00)^** %injected dose /organ
SMILES: COCCOc1ccc2c(c1)ncn2-c1ccc2c([125I])ccc(N3CCC(N)CC3)c2n1 [[^125I]4, [^125I]1-{5-iodo-2-[5-(2-methoxyethoxy)-1H-benzo[d]imidazol-1-yl]quinolin-8-yl}piperidin-4-amine, reference compound]
- Cellular uptake in BxPC3-luc cells [2]: higher than that in MCF7 cells
- Radioactivity in Blood (BxPC3-luc tumor; i.v. co-injection, 1 h): 0.63 (0.05) %injected dose/gram of tissue
- Radioactivity in Bone (BxPC3-luc tumor; i.v. co-injection, 1 h): 0.83 (0.10)^* %injected dose/gram of tissue
- Radioactivity in Brain (BxPC3-luc tumor; i.v. co-injection, 1 h): 0.07 (0.00) %injected dose/gram of tissue
- Radioactivity in BxPC3-luc tumor (BxPC3-luc tumor; i.v. co-injection, 1 h): 1.19 (0.06)^* %injected dose/gram of tissue
- Radioactivity in Heart (BxPC3-luc tumor; i.v. co-injection, 1 h): 1.51 (0.40) %injected dose/gram of tissue
- Radioactivity in Kidney (BxPC3-luc tumor; i.v. co-injection, 1 h): 15.56 (3.61) %injected dose/gram of tissue
- Radioactivity in Large intestine (BxPC3-luc tumor; i.v. co-injection, 1 h): 2.46 (0.35) %injected dose/gram of tissue
- Radioactivity in Liver (BxPC3-luc tumor; i.v. co-injection, 1 h): 11.02 (0.73) %injected dose/gram of tissue
- Radioactivity in Lung (BxPC3-luc tumor; i.v. co-injection, 1 h): 9.14 (2.14) %injected dose/gram of tissue
- Radioactivity in Muscle (BxPC3-luc tumor; i.v. co-injection, 1 h): 0.79 (0.10) %injected dose/gram of tissue
- Radioactivity in Pancreas (BxPC3-luc tumor; i.v. co-injection, 1 h): 5.48 (0.93) %injected dose/gram of tissue
- Radioactivity in Small intestine (BxPC3-luc tumor; i.v. co-injection, 1 h): 47.01 (5.56) %injected dose/gram of tissue
- Radioactivity in Spleen (BxPC3-luc tumor; i.v. co-injection, 1 h): 2.76 (0.73) %injected dose/gram of tissue
- Radioactivity in Brain ([3]; 10 min): 0.07 (0.00)^** %injected dose/gram tissue
- Radioactivity in Brain ([3]; 4 h): 0.03 (0.00)^** %injected dose/gram tissue
- Radioactivity in Muscle ([3]; 4 h): 0.23 (0.06)^** %injected dose/gram tissue
- Radioactivity in Blood ([3]; 24 h): 0.03 (0.00)^** %injected dose/gram tissue
- Radioactivity in Bone ([3]; 24 h): 0.15 (0.05)^** %injected dose/gram tissue
- Radioactivity in Brain ([3]; 24 h): 0.02 (0.00)^** %injected dose/gram tissue
- Radioactivity in Heart ([3]; 24 h): 0.10 (0.09)^** %injected dose/gram tissue
- Radioactivity in Muscle ([3]; 24 h): 0.04 (0.01)^** %injected dose/gram tissue
- Radioactivity in Small intestine ([3]; 24 h): 0.04 (0.00)^** %injected dose/gram tissue
- n-octanol/phosphate buffer partition coefficient (log P) [4]: 2.71 ± 0.03

SMILES: CNC(=O)c1cc(Oc2ccc(NC(=O)Nc3ccc(Cl)c(C(F)(F)F)c3)cc2)ccn1 [^11C-labeled sorafenib, sorafenib]
- Tumor uptake (RXF393 xenograft): about 2.52 ± 0.33 %ID/g
